# Results: the supplement of paper PMC10307832
# Compound: CC1(C)CNc2cc(NC(=O)c3cccnc3NCc3ccncc3)ccc21 [Motesanib] + CC(=O)c1c(C)c2cnc(Nc3ccc(N4CCNCC4)cn3)nc2n(C2CCCC2)c1=O [Palbociclib] (partner 0.5 µM)
# Assay: relative viability (nuclei count vs DMSO), 5 days (fraction); higher = more cells survive
# Conditions: first compound 1 µM
# Summary of the method: (§1)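 Relative viability is defined as nuclei in treated wells over nuclei in vehicle wells. Duplicate plates were run and medians reported. Lung cancer cell lines in 1536-well plates were dosed by pin tool one day after seeding, with one drug or with a fixed anchor-drug dose plus five library-drug doses (not always all listed) in √10 steps, and nuclei were counted after 5 days.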
row,Cell Line,relative viability
1,SW 900,0.564
2,HCC-78,0.56
3,NCI-H322M,0.466
4,LCLC-97TM1,0.261
5,NCI-H2009,0.264
6,A-427,0.549
7,NCI-H441,0.23
8,NCI-H661,0.402
9,NCI-H1734,0.324
10,NCI-H460,0.137
11,NCI-H2347,0.437
12,SK-LU-1,0.401
13,NCI-H1395,0.661
14,201T,0.373
15,NCI-H1915,0.575
16,HCC-827,0.439
17,LXF-289,0.585

# Compound: C[C@@]1(C(=O)Nc2ccc(F)nc2)CCCN1c1nc(Nc2cc(C3CC3)n[nH]2)c2cccn2n1 + N=C(N)NC(=N)NCCc1ccccc1 [Phenformin] (partner 250 µM)
# Assay: as above
# Conditions: first compound 0.04 µM
# Summary of the method: as §1
row,Cell Line,relative viability
1,NCI-H1666,0.554
2,LK-2,0.251
3,NCI-H2087,0.437
4,SK-MES-1,0.699
5,H3255,0.298
6,COR-L23,0.454
7,COR-L 105,0.422
8,LOU-NH91,0.673
9,ChaGo-K-1,0.403
10,NCI-H2170,0.432
11,NCI-H2405,0.351
12,HOP-62,0.672
13,HCC-44,0.178
14,NCI-H522,0.557
15,LU99A,0.773
16,BEN,0.291
17,HARA,0.431

row,Cell Line,relative viability
1,SW 900,0.566
2,HCC-78,0.798
3,NCI-H322M,0.686
4,LCLC-97TM1,0.333
5,NCI-H2009,0.539
6,A-427,0.341
7,NCI-H441,0.405
8,NCI-H661,0.245
9,NCI-H1734,0.323
10,NCI-H460,0.53
11,NCI-H2347,0.368
12,SK-LU-1,0.476
13,NCI-H1395,0.428
14,201T,0.346
15,NCI-H1915,0.372
16,HCC-827,0.431
17,LXF-289,0.528

# Same assay, conditions: first compound 0.1265 µM
row,Cell Line,relative viability
1,NCI-H1666,0.529
2,LK-2,0.178
3,NCI-H2087,0.342
4,SK-MES-1,0.632
5,H3255,0.372
6,COR-L23,0.407
7,COR-L 105,0.368
8,LOU-NH91,0.646
9,ChaGo-K-1,0.283
10,NCI-H2170,0.396
11,NCI-H2405,0.273
12,HOP-62,0.598
13,HCC-44,0.116
14,NCI-H522,0.633
15,LU99A,0.621
16,BEN,0.229
17,HARA,0.386

row,Cell Line,relative viability
1,SW 900,0.544
2,HCC-78,0.452
3,NCI-H322M,0.561
4,LCLC-97TM1,0.133
5,NCI-H2009,0.493
6,A-427,0.265
7,NCI-H441,0.35
8,NCI-H661,0.235
9,NCI-H1734,0.272
10,NCI-H460,0.436
11,NCI-H2347,0.495
12,SK-LU-1,0.396
13,NCI-H1395,0.42
14,201T,0.355
15,NCI-H1915,0.381
16,HCC-827,0.402
17,LXF-289,0.472

# Same assay, conditions: first compound 0.4 µM
row,Cell Line,relative viability
1,NCI-H1666,0.635
2,LK-2,0.166
3,NCI-H2087,0.313
4,SK-MES-1,0.559
5,H3255,0.346
6,COR-L23,0.406
7,COR-L 105,0.346
8,LOU-NH91,0.596
9,ChaGo-K-1,0.296
10,NCI-H2170,0.419
11,NCI-H2405,0.226
12,HOP-62,0.635
13,HCC-44,0.134
14,NCI-H522,0.59
15,LU99A,0.586
16,BEN,0.272
17,HARA,0.395

row,Cell Line,relative viability
1,SW 900,0.596
2,HCC-78,0.346
3,NCI-H322M,0.531
4,LCLC-97TM1,0.129
5,NCI-H2009,0.479
6,A-427,0.229
7,NCI-H441,0.369
8,NCI-H661,0.233
9,NCI-H1734,0.278
10,NCI-H460,0.36
11,NCI-H2347,0.312
12,SK-LU-1,0.361
13,NCI-H1395,0.5
14,201T,0.32
15,NCI-H1915,0.378
16,HCC-827,0.371
17,LXF-289,0.484

# Same assay, conditions: first compound 1.265 µM
row,Cell Line,relative viability
1,NCI-H1666,0.487
2,LK-2,0.202
3,NCI-H2087,0.237
4,SK-MES-1,0.635
5,H3255,0.332
6,COR-L23,0.241
7,COR-L 105,0.393
8,LOU-NH91,0.608
9,ChaGo-K-1,0.4
10,NCI-H2170,0.357
11,NCI-H2405,0.276
12,HOP-62,0.762
13,HCC-44,0.0862
14,NCI-H522,0.56
15,LU99A,0.52
16,BEN,0.281
17,HARA,0.442

row,Cell Line,relative viability
1,SW 900,0.461
2,HCC-78,0.319
3,NCI-H322M,0.499
4,LCLC-97TM1,0.12
5,NCI-H2009,0.481
6,A-427,0.211
7,NCI-H441,0.264
8,NCI-H661,0.229
9,NCI-H1734,0.281
10,NCI-H460,0.239
11,NCI-H2347,0.41
12,SK-LU-1,0.409
13,NCI-H1395,0.481
14,201T,0.36
15,NCI-H1915,0.347
16,HCC-827,0.443
17,LXF-289,0.48

# Compound: CC1(C)CNc2cc(NC(=O)c3cccnc3NCc3ccncc3)ccc21 [Motesanib] + N=C(N)NC(=N)NCCc1ccccc1 [Phenformin] (partner 250 µM)
# Assay: as above
# Conditions: first compound 0.01 µM
# Summary of the method: as §1
row,Cell Line,relative viability
1,NCI-H1666,0.558
2,LK-2,0.372
3,NCI-H2087,0.475
4,SK-MES-1,0.624
5,H3255,0.357
6,COR-L23,0.468
7,COR-L 105,0.485
8,LOU-NH91,0.672
9,ChaGo-K-1,0.473
10,NCI-H2170,0.469
11,HOP-62,0.641
12,HCC-44,0.129
13,NCI-H522,0.644
14,LU99A,0.737
15,BEN,0.257
16,HARA,0.479
17,SW 900,0.58

row,Cell Line,relative viability
1,HCC-78,0.605
2,NCI-H322M,0.748
3,LCLC-97TM1,0.427
4,NCI-H2009,0.491
5,A-427,0.239
6,NCI-H441,0.895
7,NCI-H661,0.292
8,NCI-H1734,0.36
9,NCI-H460,0.478
10,NCI-H2347,0.419
11,SK-LU-1,0.489
12,NCI-H1395,0.437
13,201T,0.377
14,NCI-H1915,0.395
15,HCC-827,0.449
16,LXF-289,0.526

# Same assay, conditions: first compound 0.03162 µM
row,Cell Line,relative viability
1,NCI-H1666,0.552
2,LK-2,0.39
3,NCI-H2087,0.411
4,SK-MES-1,0.588
5,H3255,0.367
6,COR-L23,0.456
7,COR-L 105,0.499
8,LOU-NH91,0.736
9,ChaGo-K-1,0.436
10,NCI-H2170,0.359
11,NCI-H2405,0.265
12,HOP-62,0.694
13,HCC-44,0.174
14,NCI-H522,0.634
15,LU99A,0.886
16,BEN,0.259
17,HARA,0.433

row,Cell Line,relative viability
1,SW 900,0.599
2,HCC-78,0.73
3,NCI-H322M,0.823
4,LCLC-97TM1,0.424
5,NCI-H2009,0.36
6,A-427,0.294
7,NCI-H441,0.873
8,NCI-H661,0.268
9,NCI-H1734,0.368
10,NCI-H460,0.455
11,NCI-H2347,0.45
12,SK-LU-1,0.5
13,NCI-H1395,0.431
14,201T,0.44
15,NCI-H1915,0.362
16,HCC-827,0.475
17,LXF-289,0.478

# Same assay, conditions: first compound 0.1 µM
row,Cell Line,relative viability
1,NCI-H1666,0.591
2,NCI-H2087,0.575
3,SK-MES-1,0.714
4,H3255,0.364
5,COR-L23,0.494
6,COR-L 105,0.538
7,LOU-NH91,0.78
8,ChaGo-K-1,0.509
9,NCI-H2170,0.447
10,NCI-H2405,0.404
11,HOP-62,0.678
12,HCC-44,0.252
13,NCI-H522,0.581
14,LU99A,0.819
15,BEN,0.229
16,HARA,0.435

row,Cell Line,relative viability
1,SW 900,0.552
2,HCC-78,0.715
3,NCI-H322M,0.806
4,LCLC-97TM1,0.46
5,NCI-H2009,0.544
6,A-427,0.319
7,NCI-H441,0.845
8,NCI-H661,0.28
9,NCI-H460,0.54
10,NCI-H2347,0.372
11,SK-LU-1,0.539
12,NCI-H1395,0.406
13,201T,0.485
14,NCI-H1915,0.249
15,HCC-827,0.405
16,LXF-289,0.573

# Same assay, conditions: first compound 0.3162 µM
row,Cell Line,relative viability
1,NCI-H1666,0.607
2,LK-2,0.538
3,NCI-H2087,0.489
4,SK-MES-1,0.703
5,H3255,0.394
6,COR-L23,0.531
7,COR-L 105,0.573
8,LOU-NH91,0.75
9,ChaGo-K-1,0.499
10,NCI-H2170,0.489
11,NCI-H2405,0.402
12,HOP-62,0.74
13,HCC-44,0.309
14,NCI-H522,0.582
15,LU99A,0.952
16,BEN,0.253
17,HARA,0.431

row,Cell Line,relative viability
1,SW 900,0.621
2,HCC-78,0.822
3,NCI-H322M,0.798
4,LCLC-97TM1,0.419
5,NCI-H2009,0.481
6,A-427,0.374
7,NCI-H441,0.913
8,NCI-H661,0.292
9,NCI-H1734,0.36
10,NCI-H460,0.549
11,NCI-H2347,0.502
12,SK-LU-1,0.569
13,NCI-H1395,0.543
14,201T,0.48
15,NCI-H1915,0.375
16,HCC-827,0.448
17,LXF-289,0.529

# Same assay, conditions: first compound 1 µM
row,Cell Line,relative viability
1,NCI-H1666,0.612
2,LK-2,0.549
3,NCI-H2087,0.484
4,SK-MES-1,0.658
5,H3255,0.35
6,COR-L23,0.43
7,COR-L 105,0.463
8,LOU-NH91,0.78
9,ChaGo-K-1,0.528
10,NCI-H2170,0.409
11,NCI-H2405,0.422
12,HOP-62,0.761
13,HCC-44,0.209
14,NCI-H522,0.667
15,LU99A,0.894
16,BEN,0.272
17,HARA,0.359

row,Cell Line,relative viability
1,SW 900,0.739
2,HCC-78,0.707
3,NCI-H322M,0.791
4,LCLC-97TM1,0.418
5,NCI-H2009,0.487
6,A-427,0.323
7,NCI-H441,0.822
8,NCI-H661,0.268
9,NCI-H1734,0.468
10,NCI-H460,0.527
11,NCI-H2347,0.466
12,SK-LU-1,0.591
13,NCI-H1395,0.433
14,201T,0.427
15,NCI-H1915,0.357
16,HCC-827,0.451
17,LXF-289,0.521
